Laboratory results: publication PMC9606171, “Synthetic PPAR Agonist DTMB Alleviates Alzheimer’s Disease Pathology by Inhibition of Chronic Microglial Inflammation in 5xFAD Mice” (Neurotherapeutics, 2022)

Tests used:
5xFAD mice [1] = assay: Immunohistochemistry of gliosis (Iba-1, GFAP) in 5xFAD brain; type: in vivo; details: cortex and hippocampus, versus transgenic controls
Experimental: (§1) DTMB was synthesized from Daejung Chemicals (Korea) and was dissolved in dimethyl sulfoxide (Sigma Aldrich, St. Louis, MO, USA) for cell-based experiments. To evaluate the effects of DTMB on 5xFAD mice, DTMB (10 mg/kg) and vehicle (1% carboxymethylcellulose and 10% DMSO) were orally administrated to four groups (wild-type, wild-type + DTMB, 5xFAD, and 5xFAD + DTMB) with a 6 day per week for 3 months.
Mice were perfused with ice-cold phosphate-buffered saline (PBS). Brain tissues were separately used for either molecular analysis or immunohistochemistry. The right hemisphere was fixed with 4% PFA and was transferred to a sucrose solution (30%) for 24 h. The right hemisphere was embedded and frozen in optimal cutting temperature compound on dry ice. Coronal Sections (18 μm thick) that included the hippocampus were cut and prepared on slide glasses. Tissue sections were then permeabilized and blocked using a blocking solution (5% goat serum and 0.2% Triton X-100 in PBS) for 1 h at room temperature. Primary antibody incubation was performed overnight at 4 °C using an anti-6e10 antibody (Biolegend, Japan, 1:100), anti-Iba1 antibody (Wako, Japan, 1:200), and anti-GFAP antibody (Abcam, Cambridge, UK, 1:200). […] Slides were counterstained in Hoechst and then mounted in fluorescence mounting medium (Dako, Denmark). […] Fluorescence was measured by calculating % area and was analyzed using ImageJ. […]

5xFAD mice [2] = assay: RT-qPCR of magnetically sorted adult microglia; type: in vivo; details: adult microglia sorted from 5xFAD mice
Experimental: as §1
To isolate the adult microglia from DTMB- or vehicle-treated 5xFAD mice brain, magnetic-activated cell sorting (MACs) system was used. Whole brain tissue was dissociated to a single cell level using gentleMACs dissociation kit (Miltenyi Biotech, Bergisch Gladbach, Germany) according to manufacturer’s instruction. To separate the immune cell fraction, 47% percoll gradient was applied to single cell mixture and centrifuged at 2,000 rpm for 10 min. Adult microglia was isolated by LS column after incubating with anti-CD11b MicroBeads (Miltenyi Biotech). Separated adult microglia were used to analyze the expression of genes related to microglia activation and inflammation by performing RT-PCR. Sample sizes were 3 mice per group.

BV2 cells = assay: Western blot of NF-κB, NLRP3 and ASC in BV2 cells; type: cell-based, mouse
Experimental: The BV2 mouse microglia cell line was received from Professor K. H. Suk (Kyungpook National University, Korea). BV2 cells were cultured with Dulbecco’s Modified Eagle Medium (DMEM) (Hyclone, Logan, UT, USA), containing 5% fetal bovine serum (FBS, Hyclone) and 50 μg/mL of gentamicin (Lonza, Switzerland), in a 5% CO2 incubator with a humidified atmosphere at 37 °C. RAW 264.7 macrophage cells were cultured with DMEM that contains 10% FBS and 1% penicillin/streptomycin in a 5% CO2 incubator with a humidified atmosphere at 37 °C.
Cells were lysed with lysis buffer containing 50 mM Tris (pH 7.4), 140 mM NaCl, 5 mM EDTA, and a protease inhibitor tablet, followed by sonication. Lysate protein concentrations were determined using Bradford reagents (AMERSCO, MA, USA). Proteins were resolved by sodium dodecyl sulfate (SDS) polyacrylamide gel electrophoresis, transferred to nitrocellulose membranes (Pall Corporation, New York, NY, USA), and incubated with blocking buffer (5% nonfat dry milk in TBS and 0.1% Tween 20) for 30 min. Western blot analyses were performed using primary antibodies against NF-κB, NLRP3, ASC, nicastrin, pen2 (Cell Signaling Technology, Danvers, MA, USA), Aph1 (Invitrogen), amyloid C-terminal fragment (Santa Cruz Biotechnology, Dallas, TX, USA), and GAPDH (Bethyl Laboratories, Mongomery, TX, USA). Secondary antibodies of rabbit (Promega), rat, and goat (Bethyl Laboratories) were used, and detection was performed with SUPEX ECL reagent (Neuronex, Korea) and an ImageQuant LAS-4000 (GE Healthcare, MA, USA), according to the manufacturer’s instructions. The integrated blot density was quantified through ImageJ.

[3] = target: T1, recombinant human PPAR β/δ LBD (Homo sapiens, UniProt Q03181); assay: CNBr-bead pull down assay, PPAR β/δ LBD; type: binding; details: drug conjugated CNBr beads
T1 sequence (Q03181 211-439 limits assumed): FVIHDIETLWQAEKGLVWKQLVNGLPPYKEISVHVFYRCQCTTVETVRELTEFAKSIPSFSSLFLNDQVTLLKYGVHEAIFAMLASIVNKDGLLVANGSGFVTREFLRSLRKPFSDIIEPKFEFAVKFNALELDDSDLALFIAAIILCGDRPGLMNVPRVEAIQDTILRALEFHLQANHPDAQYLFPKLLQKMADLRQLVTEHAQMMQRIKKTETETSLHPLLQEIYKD
Experimental: CNBr Sepharose 4B beads were prepared and activated according to the instruction. 100 mg of CNBr activated Sepharose 4B beads were incubated with drugs or DMSO for 18 h at 4 °C. The drug conjugated beads reacted to his-tagged recombinant PPAR α, β/δ, and γ protein. After 24 h of incubation, we confirmed whether recombinant protein binds to the drug conjugated bead through western blotting experiment.

5xFAD mice [4] = assay: Western blot and qPCR of APP and β-/γ-secretase in 5xFAD brain; type: in vivo; details: 10 mg/kg orally, 3 months
Experimental: as §1
Cells were lysed with lysis buffer containing 50 mM Tris (pH 7.4), 140 mM NaCl, 5 mM EDTA, and a protease inhibitor tablet, followed by sonication. Lysate protein concentrations were determined using Bradford reagents (AMERSCO, MA, USA). Proteins were resolved by sodium dodecyl sulfate (SDS) polyacrylamide gel electrophoresis, transferred to nitrocellulose membranes (Pall Corporation, New York, NY, USA), and incubated with blocking buffer (5% nonfat dry milk in TBS and 0.1% Tween 20) for 30 min. […] The integrated blot density was quantified through ImageJ.
Total RNA was isolated using TRI Reagent (Molecular Research Center, Cincinnati, OH, USA). […] For detection and quantification, a StepOnePlus Real-Time PCR System (Applied Biosystems, Foster City, CA, USA) was used with FastStart Universal SYBR Green Master (Roche, Basel, Switzerland). Real-time qPCR data were analyzed using the comparative CT method. […]

HMO6 cell line = assay: Cell viability assay (MTT), HMO6; type: cell-based; details: 48 h
Experimental: Cell viability was measured by chromogenic assay involving the biological reduction of 3-(4,5-dimethyl-thiazol-2-yl)-2,5-diphenyltetrazoliumbromide (MTT) to formazan in living cells. Briefly, cells were seeded in 96-well plates in a final volume of 100 μL. After 24 h, the culture media were replaced with fresh media containing DTMB compounds, and the cells were cultured for another 48 h. Next, MTT (5 mg/mL in PBS) was added to the culture medium. The cells were incubated for 1 h in the dark at 37 °C, and the supernatant was then removed from the well. Total MTT solvent (4 mM HCl and 0.1% Nonidet P-40, both in isopropanol) was added to dissolve the formazan crystal, and absorbance was measured at 570 nm using a microplate reader Infinite 200 Pro NanoQuant microplate reader (TECAN, Switzerland).

binding to PPAR LBD (pull-down, western blot) [3]: binds
Structure (SMILES): COc1ccc(-c2cc(=O)oc3c(C)c(OC(=O)[C@H](Cc4c[nH]c5ccccc45)NC(=O)OC(C)(C)C)ccc23)cc1 [DTMB]
percentage of areas stained for Iba-1 and GFAP (gliosis of microglia and astrocyte) (5xFAD mice [1]): decreased
levels of microglial activation markers (Iba-1, Trem2, and Cd68) (5xFAD mice [2]): markedly decreased
levels of proinflammatory cytokines (Tnf-α, Il-6, and Il-1β) (5xFAD mice [2]): markedly decreased
protein level of ASC (BV2 cells): not changed
protein level of NF-κB (BV2 cells): decreased
protein level of NLRP3 (BV2 cells): decreased
protein level of β-secretase (5xFAD mice [4]; cortex): slightly decreased
APP protein and mRNA level (5xFAD mice [4]; hippocampus): neither changes
cytotoxicity (MTT) (HMO6 cell line): no cytotoxicity
